PubChem BioAssay (NCI)
Where “and” joins values, the source holds several entries; their conditions need not be identical. Equal values may be shown once.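 Protocol summary: plate cells (96-well), add compound at 5 concentrations, incubate 48 h, interpolate endpoints linearly. GI50: concentration for 50% inhibition of growth. TGI denotes the concentration required for complete inhibition of growth.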

Columns and labels:
Assay in all cases: DTP human tumour cell line panel, 48 h
CAKI-1 renal = tested on: CAKI-1 renal
KM12 colon = tested on: KM12 colon
MALME-3M melanoma = tested on: MALME-3M melanoma
MCF7 breast = tested on: MCF7 breast
MDA-MB-231 breast = tested on: MDA-MB-231 breast
RXF 393 renal = tested on: RXF 393 renal
SK-MEL-28 melanoma = tested on: SK-MEL-28 melanoma
SN12C renal = tested on: SN12C renal
SNB-19 CNS = tested on: SNB-19 CNS
UACC-257 melanoma = tested on: UACC-257 melanoma

| Compound | GI50 (CAKI-1 renal) | TGI (CAKI-1 renal) | GI50 (KM12 colon) | TGI (KM12 colon) | GI50 (MALME-3M melanoma) | TGI (MALME-3M melanoma) | GI50 (MCF7 breast) | TGI (MCF7 breast) | GI50 (MDA-MB-231 breast) | TGI (MDA-MB-231 breast) | GI50 (RXF 393 renal) | TGI (RXF 393 renal) | GI50 (SK-MEL-28 melanoma) | TGI (SK-MEL-28 melanoma) | GI50 (SN12C renal) | TGI (SN12C renal) | GI50 (SNB-19 CNS) | TGI (SNB-19 CNS) | GI50 (UACC-257 melanoma) | TGI (UACC-257 melanoma) |
| --- | --- | --- | --- | --- | --- | --- | --- | --- | --- | --- | --- | --- | --- | --- | --- | --- | --- | --- | --- | --- |
| CCN1C(=O)CNc2ncc(-c3ccc(-c4ncn[nH]4)nc3C)nc21 | 0.0441 µM | 0.576 µM | 0.193 µM | 11.3 µM | 0.0227 µM | 0.221 µM | 0.051 µM | 10.7 µM | 0.127 µM | 3.33 µM | 0.0476 µM | 0.371 µM | 0.115 µM | 1.44 µM | 0.168 µM | 14.9 µM | 0.337 µM | 6.9 µM | 0.184 µM | 2.11 µM |
| CCN(CC)c1sc(N(CC)CC)c2c1SSSSS2 | 1.49 µM | 3.78 µM | 1.68 µM | 3.55 µM | 1.59 µM | 3.45 µM | 1.08 µM |  | 0.894 µM | 2.41 µM | 1.59 µM |  | 1.55 µM | 3.92 µM | 0.315 µM | 0.866 µM | 2.64 µM | 12.7 µM | 1.79 µM | 4.08 µM |
| Fc1cc(F)c(COc2cc(Cn3cnc4c(Cl)nc(Cl)nc43)ccc2C23CC4CC(CC(C4)C2)C3)cc1F | 10.4 µM | 22.8 µM | 17.2 µM | 32.6 µM | 1.92 µM | 4.75 µM | 11 µM | 27.5 µM | 17.5 µM | 32.7 µM | 15.3 µM | 29.7 µM | 18.2 µM | 37.4 µM | 11 µM | 24.9 µM | 17.5 µM | 31.7 µM | 21 µM | 39.3 µM |
| Cc1ccc(/C(=C/C=C(C#N)C#N)Sc2ccc(Cl)cc2)cc1 | 2.03 µM | 5.3 µM | 5.5 µM | 26.7 µM | 12.2 µM | 30.5 µM | 5.24 µM | > 100 µM | 10.5 µM | 28.4 µM | 11.9 µM | 39.2 µM | 10.6 µM | 46.8 µM | 4.32 µM | 18 µM | 11 µM | 25.3 µM | 9.04 µM | 22 µM |
| NC(=S)N/N=C/c1ccc(OC(=O)COc2ccc(Cl)cc2)cn1 | 4.3 µM | 97.4 µM | 3.18 µM | > 100 µM | 12.2 µM | > 100 µM | 3.71 µM | > 100 µM | 6.61 µM | > 100 µM | 5.48 µM | > 100 µM | 36.4 µM | > 100 µM | 4.53 µM | > 100 µM | 20.9 µM | > 100 µM | 17.9 µM | 72.1 µM |
| COc1ccc(C(=O)COc2cccc(/C=C3\COc4ccc5ccccc5c4C3=O)c2)cc1 | 8.24 µM | 78.3 µM | 3.11 µM | 24.6 µM | 10.2 µM | > 100 µM | 2.48 µM | > 100 µM | 6.97 µM | > 100 µM | 9.8 µM | > 100 µM | 47.8 µM | > 100 µM | 4.46 µM | > 100 µM | 9.37 µM | > 100 µM | 39.7 µM | > 100 µM |
| CCC1(O)C(=O)OCc2c1cc1n(c2=O)Cc2cc3ccc(C=O)cc3nc2-1 (stereo not drawn) | 1.99 µM | 19.2 µM and 8.81 µM | 4.83 µM | 29.7 µM and > 100 µM | 13.2 µM | 50 µM and 41.2 µM | 0.187 µM | 50 µM and 10.6 µM | 19.4 µM | 50 µM and 68.2 µM | 4.92 µM | 20.8 µM and 13.1 µM | 11.2 µM | 50 µM and > 100 µM | 1.39 µM | 50 µM and 7.53 µM | 1.67 µM | 50 µM and > 100 µM | 7.73 µM | 23.7 µM and 43.7 µM |
| O=C(Nc1ccc(Cl)cc1)c1cc(-c2ccc(F)cc2)c2sc(=O)[nH]c2n1 | 2.15 µM | 4.99 µM | 1.81 µM | 6.04 µM | 1.7 µM | 6.8 µM | 1.31 µM | 11.3 µM | 1.77 µM | 4.78 µM | 1.7 µM | 3.99 µM | 1.39 µM | 10.1 µM | 1.99 µM | 7.93 µM | 2.73 µM | 16.2 µM | 1.11 µM | 5.07 µM |
| CCN(CC)c1ccc(C(=N)c2ccc(N(CC)CC)cc2)cc1 | 0.588 µM | 5.85 µM | 0.366 µM | 1.52 µM | 0.714 µM | 2.48 µM | 0.349 µM | 1.78 µM | 1.15 µM | 3.23 µM | 0.731 µM | 2.45 µM | 0.916 µM | 2.81 µM | 1.34 µM | 5.82 µM | 0.917 µM | 8.09 µM | 0.744 µM | 2.25 µM |
| COc1ccc2c(c1)C(=O)c1c-2n(CCCn2ccnc2)c(=O)c2ccccc12 | 0.211 µM | 1.34 µM | 0.729 µM | 3.78 µM | 1.25 µM | 6.44 µM | 0.0241 µM | 1.84 µM | 3.79 µM | > 79.1 µM | 0.431 µM | 2 µM | 2.08 µM | > 57.4 µM | 0.692 µM | > 100 µM | 0.293 µM | > 46.5 µM | 1.14 µM | 10.9 µM |
| Cc1ccc(C(=NN=C(N)N)c2ccc(C)cc2)cc1 | 0.608 µM | 5.93 µM | 0.327 µM | 1.33 µM | 0.388 µM | 1.91 µM | 0.396 µM | 8.53 µM | 0.926 µM | 4.36 µM | 0.509 µM | 1.73 µM | 2.2 µM | 6.7 µM | 1.07 µM | 11.6 µM | 2.23 µM | 18.4 µM | 0.498 µM | 2.07 µM |
| CC(C)c1ccc(C(=O)Nc2sc3c(c2C(N)=O)CCC(=O)C3)cc1 | 0.334 µM | 1.55 µM | 0.45 µM | 1.85 µM | 1.65 µM | 4.79 µM | 0.466 µM | 5.16 µM | 0.788 µM | 2.43 µM | 0.354 µM | 1.49 µM | 1.18 µM | 3.01 µM | 0.515 µM | 2.35 µM | 0.472 µM | 6.02 µM | 2.05 µM | 5.04 µM |
| COc1ccc(C(C)c2cc3c(cc2OC)OCO3)cc1 (stereo not drawn) |  | > 100 µM |  | > 41 µM |  | 52.2 µM |  | 40.6 µM |  | 4.6 µM |  | > 100 µM |  | > 100 µM |  | 43.5 µM |  | > 100 µM |  | > 75.5 µM |
| Clc1nc(Cl)c2ncn(Cc3cccc(COc4cccc(OCc5cccc(Cn6cnc7c(Cl)nc(Cl)nc76)c5)c4)c3)c2n1 | > 100 µM | > 100 µM | 34.6 µM | > 100 µM | > 100 µM | > 100 µM | 31.1 µM | > 100 µM | 27.2 µM | > 100 µM | 7.2 µM | > 100 µM | 90.3 µM | > 100 µM | > 100 µM | > 100 µM | > 100 µM | > 100 µM | 13.5 µM | > 100 µM |
| CCN(CC)CCCC(C)Nc1c(C)cnc2cc(Cl)c(C)cc12 (stereo not drawn) | 10 µM | 26.6 µM | 13.8 µM | 28.6 µM | 14.9 µM | 29.7 µM | 16.2 µM | 35.3 µM | 2.71 µM | 10.4 µM | 8.75 µM | 26.6 µM | 2.49 µM | 8.99 µM | 11.2 µM | 43.9 µM | 17.7 µM | 50.6 µM | 18.2 µM | 34.4 µM |
| CCOC(=O)Sc1ncnc2nc[nH]c12 | 0.579 µM | 6.31 µM | 4.03 µM | > 100 µM | 27.1 µM | > 100 µM | 0.616 µM | > 100 µM | 3.88 µM | > 100 µM | 15.1 µM | > 100 µM | 43.7 µM | > 100 µM | 7.94 µM | > 100 µM | 85 µM | > 100 µM | 7.2 µM | > 100 µM |
| CC/C=C\C[C@@H]1C/C=C2/C(=O)C=C[C@H]2C/C=C\CCCC(=O)O1 | 0.42 µM | 1.77 µM | 0.262 µM | 0.767 µM | 1.18 µM | 4.65 µM | 0.356 µM | 2.12 µM | 1.56 µM | 6.59 µM | 0.492 µM | 1.73 µM | 0.424 µM | 1.85 µM | 0.545 µM | 4.01 µM | 1.25 µM | 3.36 µM | 1.37 µM | 3.39 µM |
